# Assay results reported in patent publication US10047075B2, “Pyridines and pyrimidines and use thereof” (Purdue Pharma L.P., priority 2014, dated 2018).
# Where two headings read alike, the source gives them in different places.
# Biological target: human Nav1.7 (Homo sapiens, UniProt Q15858)
# Assay: FLIPR or FLIPR TETRA sodium dye assay with KCl and test article pre-incubation (CoroNa Green, veratridine + scorpion venom)
# Format: cell-based
# [1] = recombinant human Nav1.7 in HEK293 cells
# human Nav1.7, sequence (Q15858 1-1977 isoform Q15858-3): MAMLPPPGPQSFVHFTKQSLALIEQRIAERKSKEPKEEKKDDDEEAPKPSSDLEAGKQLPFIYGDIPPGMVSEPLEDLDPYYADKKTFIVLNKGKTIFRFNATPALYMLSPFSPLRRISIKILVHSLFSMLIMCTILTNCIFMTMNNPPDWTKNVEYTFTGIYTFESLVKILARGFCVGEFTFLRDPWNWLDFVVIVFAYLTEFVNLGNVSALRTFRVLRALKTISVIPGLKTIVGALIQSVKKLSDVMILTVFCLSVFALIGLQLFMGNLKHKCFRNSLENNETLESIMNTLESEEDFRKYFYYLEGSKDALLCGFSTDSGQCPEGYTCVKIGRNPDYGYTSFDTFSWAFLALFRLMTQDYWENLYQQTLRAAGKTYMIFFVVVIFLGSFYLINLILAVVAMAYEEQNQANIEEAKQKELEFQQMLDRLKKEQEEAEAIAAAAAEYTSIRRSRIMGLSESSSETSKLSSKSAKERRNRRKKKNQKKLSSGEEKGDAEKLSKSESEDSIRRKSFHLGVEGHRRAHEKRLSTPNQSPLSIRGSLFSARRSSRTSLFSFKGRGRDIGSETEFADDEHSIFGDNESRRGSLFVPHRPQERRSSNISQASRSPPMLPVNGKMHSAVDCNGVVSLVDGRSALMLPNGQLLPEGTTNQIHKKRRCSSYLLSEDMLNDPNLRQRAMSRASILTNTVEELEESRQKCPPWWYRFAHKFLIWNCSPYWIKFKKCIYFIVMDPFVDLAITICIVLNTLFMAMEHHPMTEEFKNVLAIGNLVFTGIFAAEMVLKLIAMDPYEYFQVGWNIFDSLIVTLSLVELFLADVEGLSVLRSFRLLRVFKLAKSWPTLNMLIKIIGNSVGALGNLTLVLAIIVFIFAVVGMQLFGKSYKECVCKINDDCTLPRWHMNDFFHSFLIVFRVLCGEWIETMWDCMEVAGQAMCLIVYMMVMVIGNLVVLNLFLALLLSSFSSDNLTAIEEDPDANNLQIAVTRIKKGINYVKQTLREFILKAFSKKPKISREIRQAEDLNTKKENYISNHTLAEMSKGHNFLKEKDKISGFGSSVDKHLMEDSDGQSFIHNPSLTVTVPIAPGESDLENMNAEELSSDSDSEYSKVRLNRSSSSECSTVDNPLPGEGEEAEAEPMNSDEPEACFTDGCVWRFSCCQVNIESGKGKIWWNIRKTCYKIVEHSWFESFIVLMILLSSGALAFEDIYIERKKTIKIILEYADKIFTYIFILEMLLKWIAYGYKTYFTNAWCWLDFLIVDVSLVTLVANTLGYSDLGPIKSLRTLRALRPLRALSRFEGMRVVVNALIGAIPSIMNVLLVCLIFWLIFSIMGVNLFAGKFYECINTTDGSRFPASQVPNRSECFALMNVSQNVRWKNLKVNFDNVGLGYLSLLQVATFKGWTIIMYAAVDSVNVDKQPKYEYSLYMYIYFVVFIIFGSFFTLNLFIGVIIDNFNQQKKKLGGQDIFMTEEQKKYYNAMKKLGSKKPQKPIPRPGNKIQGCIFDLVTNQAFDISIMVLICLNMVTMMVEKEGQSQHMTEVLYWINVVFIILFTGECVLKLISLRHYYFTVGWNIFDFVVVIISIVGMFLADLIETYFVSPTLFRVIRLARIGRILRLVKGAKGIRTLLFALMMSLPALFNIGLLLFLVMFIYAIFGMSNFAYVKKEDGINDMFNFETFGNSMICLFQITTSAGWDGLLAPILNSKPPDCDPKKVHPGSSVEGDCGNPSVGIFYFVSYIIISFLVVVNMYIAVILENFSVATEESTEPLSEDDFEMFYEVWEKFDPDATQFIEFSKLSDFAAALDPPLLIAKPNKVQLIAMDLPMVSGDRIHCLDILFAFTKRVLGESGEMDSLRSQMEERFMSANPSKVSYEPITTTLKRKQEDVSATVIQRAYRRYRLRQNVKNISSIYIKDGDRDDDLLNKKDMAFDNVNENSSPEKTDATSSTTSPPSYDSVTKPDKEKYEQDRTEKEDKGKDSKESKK
Compound,IC50 [1] [µM],IC50 [µM]
"NC(=O)c1cccc(-c2ccc3c(c2)CCCCN3c2ccc(C(F)(F)F)cc2)n1 [Compound 58, 6-(1-(4-(trifluoromethyl)phenyl)-2,3,4,5-tetrahydro-1H-benzo[b]azepin-7-yl)picolinamide]",0.357 ± 0.015,–
"NC(=O)c1cccc(-c2ccc3c(c2)COCCN3c2ccc(C(F)(F)F)cc2)n1 [Compound 61, 6-(1-(4-(trifluoromethyl)phenyl)-1,2,3,5-tetrahydrobenzo[e][1,4]oxazepin-7-yl)picolinamide]",0.404 ± 0.036,–
"C[C@H](Nc1cc(C(N)=O)nc(-c2ccc3c(c2)CCCCN3c2ccc(C(F)(F)F)cc2)n1)C(N)=O [Compound 64, (S)-6-((1-amino-1-oxopropan-2-yl)amino)-2-(1-(4-(trifluoro-methyl)phenyl)-2,3,4,5-tetrahydro-1H-benzo[b]azepin-7-yl)pyrimidine-4-carboxamide]",1.04 ± 0.077,–
"NC(=O)c1cccc(-c2ccc3c(c2)OCCCN3c2ccc(C(F)(F)F)cc2)n1 [Compound 65, 6-(5-(4-(trifluoromethyl)-phenyl)-2,3,4,5-tetrahydrobenzo[b][1,4]oxazepin-8-yl)picolinamide]",0.338 ± 0.034,–
"NC(=O)c1cccc(-c2ccc3c(c2)CCCN3c2ccc(C(F)(F)F)cc2)n1 [Compound 66, 6-(1-(4-(trifluoromethyl)-phenyl)-1,2,3,4-tetrahydroquinolin-6-yl)picolinamide]",0.913 ± 0.024,–
"NC(=O)c1cccc(-c2ccc3c(c2)CCCN3c2cccc(C(F)(F)F)c2)n1 [Compound 67, 6-(1-(3-(trifluoromethyl)-phenyl)-1,2,3,4-tetrahydroquinolin-6-yl)picolinamide]",> 20,–
"NC(=O)c1cccc(-c2ccc3c(c2)CCN3c2ccc(C(F)(F)F)cc2)n1 [Compound 68, 6-(1-(4-(trifluoromethyl)-phenyl)indolin-5-yl)-picolinamide]",> 20,–
"NC(=O)c1cccc(-c2ccc3c(c2)OCC=C3c2ccc(C(F)(F)F)cc2)n1 [Compound 69, 6-(4-(4-(trifluoromethyl)-phenyl)-2H-chromen-7-yl)picolinamide]",0.524 ± 0.077,–
"C[C@H](Nc1cc(C(N)=O)nc(-c2ccc3c(c2)OC[C@H](O)[C@H]3c2ccc(C(F)(F)F)cc2)n1)C(N)=O [Compound 71, 6-(((S)-1-amino-1-oxopropan-2-yl)amino)-2-((3R,4S)-3-hydroxy-4-(4-(trifluoromethyl)phenyl)chroman-7-yl)pyrimidine-4-carboxamide]",> 20,–
"NC(=O)c1cc(CN[C@H]2CCNC2=O)nc(-c2ccc3c(c2)OCCCN3c2ccc(C(F)(F)F)cc2)n1 [Compound 72, (S)-6-(((2-oxopyrrolidin-3-yl)amino)methyl)-2-(5-(4-(trifluoromethyl)phenyl)-2,3,4,5-tetrahydrobenzo[b][1,4]oxazepin-8-yl)pyrimidine-4-carboxamide]",0.11 ± 0.022,–
"OC[C@@H](O)c1cccc(-c2ccc3c(c2)CCCCN3C2CCCCC2)n1 [Compound 73, (S)-1-(6-(1-cyclohexyl-2,3,4,5-tetrahydro-1H-benzo[b]azepin-7-yl)pyridin-2-yl)ethane-1,2-diol]",0.331 ± 0.031,–
"C[C@H](Nc1cc(C(N)=O)nc(-c2ccc3c(c2)CCCCN3C2CCCCC2)n1)C(N)=O [Compound 74, (S)-6-((1-amino-1-oxopropan-2-yl)amino)-2-(1-cyclohexyl-2,3,4,5-tetrahydro-1H-benzo[b]azepin-7-yl)pyrimidine-4-carboxamide]",4.88 ± 0.47,–
"OC[C@@H](O)c1cccc(-c2ccc3c(c2)CCCCN3C2CCOCC2)n1 [Compound 75, (S)-1-(6-(1-(tetrahydro-2H-pyran-4-yl)-2,3,4,5-tetrahydro-1H-benzo[b]azepin-7-yl)pyridin-2-yl)ethane-1,2-diol]",3.35 ± 0.244,–
"OC[C@@H](O)c1cccc(-c2ccc3c(c2)CCCCN3C2CCC(F)(F)CC2)n1 [Compound 76, (S)-1-(6-(1-(4,4-difluorocyclohexyl)-2,3,4,5-tetrahydro-1H-benzo[b]azepin-7-yl)pyridin-2-yl)ethane-1,2-diol]",0.526 ± 0.034,–
"O=C1Cc2cc(-c3cccc([C@H](O)CO)n3)ccc2N1Cc1ccc(C(F)(F)F)cc1 [Compound 77, (S)-5-(6-(1,2-dihydroxyethyl)pyridin-2-yl)-1-(4-(trifluoromethyl)-benzyl)indolin-2-one]",7.8 ± 0.691,–
"O=S(=O)(c1ccc(C(F)(F)F)cc1)N1CCCc2cc(-c3cccc([C@H](O)CO)n3)ccc21 [Compound 78, (S)-1-(6-(1-((4-(trifluoromethyl)-phenyl)sulfonyl)-1,2,3,4-tetrahydroquinolin-6-yl)pyridin-2-yl)ethane-1,2-diol]",0.857 ± 0.103,–

Compound,IC50 [1] [µM],IC50 [µM]
"C[C@H](Nc1cc(C(N)=O)nc(-c2ccc3c(c2)CCCN3c2ccc(C(F)(F)F)cc2)n1)C(N)=O [Compound 80, (S)-6-((1-amino-1-oxopropan-2-yl)amino)-2-(1-(4-(trifluoro-methyl)phenyl)-1,2,3,4-tetrahydroquinolin-6-yl)pyrimidine-4-carboxamide]",0.653 ± 0.118,–
"OC[C@@H](O)c1cccc(-c2ccc3c(c2)CCCN3Cc2ccc(C(F)(F)F)cc2)n1 [Compound 81, (S)-1-(6-(1-(4-(trifluoromethyl)benzyl)-1,2,3,4-tetrahydroquinolin-6-yl)pyridin-2-yl)ethane-1,2-diol]",0.091 ± 0.025,–
"NC(=O)c1cc(O[C@H]2CCNC2=O)nc(-c2ccc3c(c2)OCCCN3c2ccc(C(F)(F)F)cc2)n1 [Compound 82, (S)-6-((2-oxopyrrolidin-3-yl)oxy)-2-(5-(4-(trifluoromethyl)phenyl)-2,3,4,5-tetrahydrobenzo-[b][1,4]oxazepin-8-yl)pyrimidine-4-carboxamide]",0.211 ± 0.038,–
"NC(=O)[C@H](O)[C@@H](O)c1cccc(-c2ccc3c(c2)OCCCN3c2ccc(C(F)(F)F)cc2)n1 [Compound 83, (2R,3S)-2,3-dihydroxy-3-(6-(5-(4-(trifluoromethyl)phenyl)-2,3,4,5-tetrahydrobenzo[b][1,4]-oxazepin-8-yl)pyridin-2-yl)propanamide]",0.213 ± 0.013,–
"NC(=O)c1cccc(-c2ccc3c(c2)CNCCN3c2ccc(C(F)(F)F)cc2)n1 [Compound 84, 6-(1-(4-(trifluoromethyl)-phenyl)-2,3,4,5-tetrahydro-1H-benzo[e][1,4]diazepin-7-yl)picolinamide]",1.92 ± 0.296,–
"C[C@H](Nc1cc(C(N)=O)nc(-c2ccc3c(c2)CNCCN3c2ccc(C(F)(F)F)cc2)n1)C(N)=O [Compound 88, (S)-6-((1-amino-1-oxopropan-2-yl)amino)-2-(1-(4-(trifluoromethyl)phenyl)-2,3,4,5-tetrahydro-1H-benzo[e][1,4]diazepin-7-yl)pyrimidine-4-carboxamide]",> 20,–
"C[C@H](Nc1cc(C(N)=O)nc(-c2ccc3c(c2)CN(CC2CC2)CCN3c2ccc(C(F)(F)F)cc2)n1)C(N)=O [Compound 89, (S)-6-((1-amino-1-oxopropan-2-yl)amino)-2-(4-(cyclopropylmethyl)-1-(4-(trifluoromethyl)phenyl)-2,3,4,5-tetrahydro-1H-benzo[e][1,4]diazepin-7-yl)pyrimidine-4-carboxamide]",> 20,–
"C[C@H](Nc1cc(C(N)=O)nc(-c2ccc3c(c2)CN(C)CCN3c2ccc(C(F)(F)F)cc2)n1)C(N)=O [Compound 90, (S)-6-((1-amino-1-oxopropan-2-yl)amino)-2-(4-methyl-1-(4-(trifluoromethyl)phenyl)-2,3,4,5-tetrahydro-1H-benzo[e][1,4]diazepin-7-yl)pyrimidine-4-carboxamide]",> 20,–
"CCN(CC)C(=O)N1CCN(c2ccc(C(F)(F)F)cc2)c2ccc(-c3cccc(C(N)=O)n3)cc2C1 [Compound 92, 7-(6-carbamoylpyridin-2-yl)-N,N-diethyl-1-(4-(trifluoromethyl)phenyl)-1,2,3,5-tetrahydro-4H-benzo[e][1,4]diazepino-4-carboxamide]",0.813 ± 0.057,–
"NC(=O)c1cccc(-c2ccc3c(c2)CN(C(=O)C2CC2)CCN3c2ccc(C(F)(F)F)cc2)n1 [Compound 93, 6-(4-(cyclopropanecarbonyl)-1-(4-(trifluoromethyl)phenyl)-2,3,4,5-tetrahydro-1H-benzo[e][1,4]diazepin-7-yl)picolinamide]",> 20,–
"CC(=O)N1CCN(C2CCCCC2)c2ccc(-c3cccc([C@H](O)CO)n3)cc2C1 [Compound 94, (S)-1-(1-cyclohexyl-7-(6-(1,2-dihydroxyethyl)pyridin-2-yl)-1,2,3,5-tetrahydro-4H-benzo[e][1,4]diazepin-4-yl)ethan-1-one]",8.8 ± 1.92,–
"CS(=O)(=O)N1CCN(c2ccc(C(F)(F)F)cc2)c2ccc(-c3cccc([C@H](O)CO)n3)cc2C1 [Compound 95, (S)-1-(6-(4-(methylsulfonyl)-1-(4-(trifluoromethyl)phenyl)-2,3,4,5-tetrahydro-1H-benzo[e][1,4]diazepin-7-yl)pyridin-2-yl)ethane-1,2-diol]",–,0.469 ± 0.017
"CCNC(=O)N1CCN(c2ccc(C(F)(F)F)cc2)c2ccc(-c3cccc([C@H](O)CO)n3)cc2C1 [Compound 97, (S)-7-(6-(1,2-dihydroxyethyl)pyridin-2-yl)-N-ethyl-1-(4-(trifluoromethyl)phenyl)-1,2,3,5-tetrahydro-4H-benzo[e][1,4]diazepin-4-carboxamide]",2.62 ± 0.1,–
"CN(C)CC(=O)N1CCN(c2ccc(C(F)(F)F)cc2)c2ccc(-c3cccc([C@H](O)CO)n3)cc2C1 [Compound 100, (S)-1-(7-(6-(1,2-dihydroxyethyl)pyridin-2-yl)-1-(4-(trifluoromethyl)phenyl)-1,2,3,5-tetrahydro-4H-benzo[e][1,4]diazepin-4-yl)-2-(dimethylamino)ethan-1-one]",7.07 ± 1.45,–
"N#CCN1CCN(c2ccc(C(F)(F)F)cc2)c2ccc(-c3cccc(C(N)=O)n3)cc2C1 [Compound 102, 6-(4-(cyanomethyl)-1-(4-(trifluoromethyl)phenyl)-2,3,4,5-tetrahydro-1H-benzo[e][1,4]diazepin-7-yl)picolinamide]",0.857 ± 0.075,–
"NC(=O)CN1CCN(C2CCCCC2)c2ccc(-c3cccc([C@H](O)CO)n3)cc2C1 [Compound 104, (S)-2-(1-cyclohexyl-7-(6-(1,2-dihydroxyethyl)pyridin-2-yl)-1,2,3,5-tetrahydro-4H-benzo[e][1,4]diazepin-4-yl)acetamide]",2.61 ± 0.047,–
